What is called IC50 is the concentration that inhibits the measured activity by half. As a reminder, the inhibition is the drop in the measured response relative to a control, in per cent.

In this assay the test system is Aβ production in 293 751 SWE and CHO 751 SWE cells (transfected with APP-751 Swedish mutation). Kind of assay: Aβ production inhibition activity in cells (Aβ ELISA of conditioned media, normalized for cytotoxicity by MTT). The assay is classed as cell-based. The settings on record: for IC50: 2 h pretreatment + 2 h incubation; for inhibition at 10 µg/mL / Aβ Production Inhibition Activity, % inhibition at 10 μg/ml: 10 μg/ml, % of drug-free control, normalized to MTT. The gist of the method: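 293 and CHO cells stably expressing APP-751 with the Swedish mutation were seeded in 96-well plates and grown overnight at 37° C. They were pretreated with compound for two hours, then given fresh compound-containing media for two more hours. Aβ in the conditioned media was quantified by sandwich ELISA (antibodies 266 and 6C6) and normalized to MTT viability versus drug-free control.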
(In general: ELISA stands for enzyme-linked immunosorbent assay.)

In the case of `CCCCCCNC(=S)N(O)Cc1ccccc1Oc1ccc(C(C)(C)C)cc1` [Compound 182], the concentration for half-maximal inhibition (IC50) is 34 µM.
Turning to `CC(C)(C)c1ccc(Oc2ccccc2NC(=S)NCc2ccc(Cl)c(Cl)c2)cc1` [Compound 183], the inhibition at 10 µg/mL was 24%.
Take `Cc1ccc(CNC(=S)Nc2ccccc2Oc2ccc(C(C)(C)C)cc2)cc1C` [Compound 184]: the inhibition at 10 µg/mL is 36%.
In the case of `CCCCCCNC(=S)Nc1ccccc1Oc1ccc(C(C)(C)C)cc1` [Compound 185], the inhibition at 10 µg/mL came out at 21%.
Take `CC(C)(C)c1ccc(Oc2cccc(NC(=S)NCc3ccccc3)c2)cc1` [Compound 186]: the IC50 was found to be 9 µM.
On the same count and under the same terms, next, `CC(C)(C)c1cccc(Oc2cccc(CN(O)C(=S)NCc3ccccc3)c2)c1` [Compound 187]: 12.1 µM; `CC(C)(C)c1ccccc1Oc1ccc(NC(=S)NCc2ccccc2)cc1` [Compound 188]: 9.4 µM.
In the case of `CC(C)(C)c1cccc(Oc2ccc(NC(=S)Nc3ccccc3C(F)(F)F)cc2)c1` [Compound 189], the inhibition at 10 µg/mL came out at 37%.
Regarding `CC(C)(C)c1ccccc1Oc1ccc(NC(=S)Nc2ccccc2C(F)(F)F)cc1` [Compound 190], the IC50 was 13.8 µM.
Take `CC(C)(C)c1ccc(Oc2ccc(NC(=S)Nc3ccc(Cl)cc3)cc2)cc1` [Compound 191]: the inhibition at 10 µg/mL was 33%.
As for `CC(C)(C)c1ccc(Oc2cccc(NC(=S)Nc3ccc(Cl)cc3)c2)cc1` [Compound 192], the IC50 turned out to be 8.8 µM.
With `CCCc1cc(C(C)(C)C)ccc1Oc1ccc(NC(=S)Nc2ccc(Cl)c(C(F)(F)F)c2)cc1` [Compound 193], the inhibition at 10 µg/mL stood at 29%.
On to `CCCc1cc(C(C)(C)C)ccc1Oc1ccc(NC(=S)NCc2cccc(C)c2)cc1` [Compound 194], for which the inhibition at 10 µg/mL was found to be 31%.
Take `CCCc1cc(C(C)(C)C)ccc1Oc1ccc(NC(=S)Nc2cccc(C(F)(F)F)c2)cc1` [Compound 195]: the concentration for half-maximal inhibition (IC50) is 11 µM.
For the compound `CCCc1cc(C(C)(C)C)ccc1Oc1ccc(NC(=S)Nc2ccc(C)c(C)c2)cc1` [Compound 196], the inhibition at 10 µg/mL was 44%.
`CCCc1cc(C(C)(C)C)ccc1Oc1ccc(NC(=S)NCc2ccccc2)cc1` [Compound 197]: the IC50 turned out to be 4.6 µM.
On the same count and under the same terms, next, `CC(C)(C)c1ccc(Oc2ccc(CSC(=S)NCc3ccccc3)cc2)cc1` [Compound 198]: 10 µM; `CCCc1c(CSC(=S)NCc2ccccc2)ccc(C(C)=O)c1O` [Compound 199]: 2 µM.
Same read-out and setting: next, `CCCc1c(NC(=S)Nc2cccc(C(F)(F)F)c2)ccc(C(=O)c2ccccc2)c1O` [Compound 201]: 20 µM.
On to `CCCCCCNC(=S)Nc1ccc(C(=O)c2ccccc2)c(O)c1CCC` [Compound 202], for which the inhibition at 10 µg/mL amounted to 42%.
Consider `CCCc1c(NC(=S)Nc2ccc(C(C)(C)C)cc2)ccc(C(=O)c2ccccc2)c1O` [Compound 203], for which the inhibition at 10 µg/mL was 2%.
For `FC(F)(F)c1cc(NC(=S)Nc2ccc(Sc3ccccn3)cc2)ccc1Cl` [Compound 223], the IC50 is 8.3 µM.
Consider `O=C(Nc1ccc(Cl)c(Cl)c1)c1ccccn1` [Compound 227], for which the “Aβ Production Inhibition Activity, % inhibition at 10 μg/ml” value is reported as 32%.
Same read-out and setting: then `O=C(Nc1ccc(Cl)c(Cl)c1)N1CCCCC1` [Compound 229], with 8%; and `CCN1CCCC(C(=O)Nc2ccc(Cl)c(Cl)c2)C1` (centres unmarked) [Compound 230], with 28%.
For the compound `CC1(C)CC(C(=O)Nc2ccc(Cl)c(Cl)c2)CC(C)(C)N1` [Compound 231], the “Aβ Production Inhibition Activity, % inhibition @ 2.5 μg/ml” value (2.5 μg/ml) was 40-51%.
As to `O=C(Nc1ccc(Cl)c(Cl)c1)Nc1nnc(Cl)s1` [Compound 232, 1-(5-chloro-1,3,4-thiadiazol-2-yl)-3-(3,4-dichlorophenyl)urea], the IC50 stood at 2 µM.
On the same count and under the same terms, then `COC(=O)c1sc2ccccc2c1C(=O)Nc1ccc(Cl)c(Cl)c1` [Compound 233], with 15.2 µM; and `Cc1nnc(NC(=O)Nc2ccc(Cl)c(Cl)c2)s1` [Compound 234, 1-(5-methyl-1,3,4-thiadiazol-2-yl)-3-(3,4-dichlorophenyl)urea], with 5 µM.
Turning to `O=C(Nc1ccc(Cl)c(Cl)c1)Nc1nncs1` [Compound 235, 1-1,3,4-thiadiazol-2-yl-3-(3,4-dichlorophenyl)urea], the IC50 was 10 µM.
Take `O=C(Nc1ccc(Cl)c(Cl)c1)Nc1nnc(C(F)(F)F)s1` [Compound 236, 1-(5-trifluoromethyl-1,3,4-thiadiazol-2-yl)-3-(3,4-dichlorophenyl)urea]: the IC50 is 4.2 µM.
Still for that read-out and setting: then `CC(C)(C)c1nnc(NC(=O)Nc2ccc(Cl)c(Cl)c2)s1` [Compound 237, 1-(5-t-butyl-1,3,4-thiadiazol-2-yl)-3-(3,4-dichlorophenyl)urea], with 2.9 µM; and `CC(C)(CCl)c1nnc(NC(=O)Nc2ccc(Cl)c(Cl)c2)s1` [Compound 238, 1-[5-(2-chloro-1,1-dimethylethyl)-1,3,4-thiadiazol-2-yl]-3-(3,4-dichlorophenyl)urea], with 1.4 µM.
The same measure, in the same setting: next, `CCCCCCSc1nnc(NC(=O)Nc2ccc(Cl)c(Cl)c2)s1` [Compound 239, 1-(5-hexylthio-1,3,4-thiadiazol-2-yl)-3-(3,4-dichlorophenyl)urea]: 1.4 µM.
Still for that read-out and setting: then `O=C(Nc1ccc(Cl)c(Cl)c1)Nc1nnc(Br)s1` [Compound 240, 1-(5-bromo-1,3,4-thiadiazol-2-yl)-3-(3,4-dichlorophenyl)urea], with 1.8 µM.
For `O=C(Nc1ccc(Cl)c(Cl)c1)c1ncco1` [Compound 241], the “Aβ Production Inhibition Activity, % inhibition at 10 μg/ml” value is reported as -8%.
The same measure, in the same setting: next, `Cc1cc(C(=O)Nc2ccc(Cl)c(Cl)c2)no1` [Compound 242]: 29%.
Turning to `O=C(Nc1ccc(Cl)c(Cl)c1)c1nccs1` [Compound 243], the IC50 was 19.4 µM.
With `CC(C)(C)c1cc(C(=O)Nc2ccc(Cl)c(Cl)c2)on1` [Compound 245], the IC50 turned out to be 9.8 µM.
Same read-out and setting: then `CC(C)(C)c1noc(C(=O)Nc2ccc(Cl)c(Cl)c2)n1` [Compound 246], with 5.8 µM; and `O=C(Nc1ccc(Cl)c(Cl)c1)c1nc(C(F)(F)F)no1` [Compound 247], with 4.4 µM.
Turning to `Cc1nnc(NC(=O)Nc2cccc(Cl)c2)s1` [Compound 248], the inhibition at 10 µg/mL came out at 47%.
As to `Cc1nnc(NC(=O)Nc2ccccc2F)s1` [Compound 249], the inhibition at 10 µg/mL worked out at 6%.
Turning to `Cc1nnc(NC(=O)Nc2ccc(F)c(Cl)c2)s1` [Compound 250, 1-(5-methyl-1,3,4-thiadiazol-2-yl)-3-(4-fluoro-3-chlorophenyl)urea], the concentration for half-maximal inhibition (IC50) came out at 9.8 µM.
Regarding `Cc1nnc(NC(=O)Nc2c(C)cccc2C)s1` [Compound 251], the inhibition at 10 µg/mL was -13%.
Same read-out and setting: then `CSc1cccc(NC(=O)Nc2nnc(C)s2)c1` [Compound 252], with 25%; and `CNC(=O)Nc1nnc(Br)s1` [Compound 253], with 2%; and `CNC(=O)N(C)c1nnc(Br)s1` [Compound 254], with 11%.
The same measure, in the same setting: then `O=C(Nc1ccccc1)Nc1nncs1` [Compound 255], with 1%.
Regarding `O=C(Nc1ccc(Cl)cc1)Nc1nncs1` [Compound 256], the inhibition at 10 µg/mL worked out at 42%.

The record behind these values is patent US5814646A, “Inhibitors of amyloid beta-protein production” (Eli Lilly and Company, priority 1995, dated 1998).
